Legend:
[1] = absolute recovery over vacuum-assisted evaporative concentration; higher = better recovery; conditions: enrichment method: VEC
Outline: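 After spiking with standards before concentration, after concentration or not at all, at 1000 ng/L for wastewater or 200 ng/L for nanopure and surface water with class- and compound-specific adjustments, samples of 6 mL influent, 15 mL effluent and 60 mL surface or nanopure water were evaporated at 55 °C and 20 mbar to about 0.3 mL. They were brought to 0.4 mL, centrifuged, given internal standards and analysed by LC-HRMS/MS. Absolute recovery, (response ratio pre − unspiked)/(post − unspiked) × 100, used averages of ≥ 2 replicates.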

[2] = absolute recovery over mixed-bed multilayer solid-phase extraction; higher = better recovery; conditions: enrichment method: SPE
Outline: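 Wastewater (100–250 mL, pH 6.5, glass-fibre filtered) and unfiltered nanopure water (1000 mL) were extracted on a three-layer mixed-bed cartridge, with standards spiked before extraction, after it, or not at all at 1000 ng/L and 200 ng/L respectively, apart from some classes. Internal standards were then added for liquid chromatography with high-resolution tandem mass spectrometry in both ionisation modes. Absolute recovery compares background-corrected response ratios of pre- and post-spiked samples across at least two replicates.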

[3] = LC retention time (Atlantis T3, 5-95% MeOH gradient, 0.1% formic acid); higher = more retained / less polar
Outline: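 Retention times were recorded for reference standards on a polar reversed-phase C18 column. The standards were of purity ≥ 95%, and the Atlantis T3 column (3 × 150 mm, 3 μm) was run at 0.3 mL/min with a gradient from 5 to 95% methanol over 17.5 min, both water and methanol containing 0.1% formic acid. Detection used high-resolution tandem mass spectrometry on a QExactive Plus, with positive and negative electrospray in separate runs, and peaks were integrated in TraceFinder (5 ppm tolerance, at least three points per peak) before being checked by hand.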

| absolute recovery ([1]; wastewater effluent) | absolute recovery ([1]; wastewater influent) | absolute recovery ([2]; nanopure water) | absolute recovery ([2]; surface water) | absolute recovery ([2]; wastewater effluent) | absolute recovery ([2]; wastewater influent) | LC retention time [3] | Structure (SMILES) |
| --- | --- | --- | --- | --- | --- | --- | --- |
| 51.7% | 49.7% | 71.4% | 78.7% | 90.1% | 85% | 16.3 min | COc1ccc(CCC(=O)c2c(O)cc(OC3OC(CO)C(O)C(O)C3OC3OC(C)C(O)C(O)C3O)cc2O)cc1O (stereo not given) [Neohesperidin-dihydrochalcon] |
| 38.8% | 45.5% | 40.5% | 19.3% | 28.1% | 53.3% | 15.8 min | COc1cccc2c1C(=O)c1c(O)c3c(c(O)c1C2=O)CC(O)(C(=O)CO)CC3OC1CC([NH3+])C(O)C(C)O1 (stereo not given) [Doxorubicin] |
| 100% | 114% | 83.4% | 83.5% | 89.2% | 78% | 14.9 min | CC12CC3CC(C)(C1)CC([NH3+])(C3)C2 [Memantine] |
| 113% | 112% | 57.9% | 118% | 91.3% | 64.3% | 22 min | O=C(Nc1ccc(Cl)cc1)Nc1ccc(Cl)c(Cl)c1 [Triclocarban] |
| 96.7% | 86.3% | 95.9% | 42.8% | 90.2% | 84.9% | 18.6 min | O=C([O-])C(F)(F)C(F)(F)C(F)(F)F [PFBA] |
| 104% | 103% | 96.1% | 93% | 92.5% | 92% | 8.25 min | CC(C)[NH2+]CC(O)c1ccc(NS(C)(=O)=O)cc1 (stereo not given) [Sotalol] |
| 102% | 96.6% | 74.6% | 87% | 79.7% | 94.5% | 15.5 min | C[NH2+]CCC(Oc1ccccc1C)c1ccccc1 (stereo not given) [Atomoxetin] |
| 107% | 107% | 92.5% | 114% | 108% | 56.7% | 15.3 min | COc1cc2[nH+]c(N3CCN(C(=O)C4COc5ccccc5O4)CC3)nc(N)c2cc1OC (stereo not given) [Doxazosin] |
| 79.1% | 69.1% | 5% | 7.7% | 7.4% | 9.3% | 5.37 min | O=c1[nH]cc(F)c(=O)[nH]1 [5-Fluorouracil] |
| 118% |  | 88.2% |  |  |  | 3.25 min | CN(C)C(=[NH2+])NC(N)=[NH2+] [Metformin] |
| 104% | 102% | 99.4% |  |  | 95.1% | 13.4 min | c1ccc2[nH]nnc2c1 [Benzotriazol] |
| 106% | 108% | 103% | 102% | 93.1% | 90.6% | 19.4 min | COC(=O)c1cccc(C)c1S(=O)(=O)[N-]C(=O)Nc1nc(OCC(F)(F)F)nc(N(C)C)n1 [Triflusulfuron-methyl] |
| 97.3% | 99.1% | 69.1% | 68.7% | 67.6% | 80.7% | 13.2 min | Cc1cccc(C)c1OCC(C)[NH3+] (stereo not given) [Mexiletine] |
| 103% | 99.3% | 90.5% | 90.3% | 91.9% | 92% | 9.5 min | Nc1[nH]c2ccccc2[nH+]1 [2-Aminobenzimidazol] |
| 87.6% |  | 65.5% | 70.3% | 65.2% | 52.7% | 6.53 min | NC(=O)Cc1ccc(OCC(O)C[NH3+])cc1 (stereo not given) [Atenolol-desisopropyl] |
| 109% | 106% | 82.5% | 83% | 81.8% | 87.2% | 11.7 min | CCC[NH2+]C(C)C(=O)Nc1ccccc1C (stereo not given) [Prilocain] |
| 108% | 101% | 93.3% | 93.1% | 90.8% | 96.3% | 17.7 min | CCCCCOC(=O)[N-]c1nc(=O)n(C2OC(C)C(O)C2O)cc1F (stereo not given) [Capecitabin] |

| absolute recovery ([1]; wastewater effluent) | absolute recovery ([1]; wastewater influent) | absolute recovery ([2]; nanopure water) | absolute recovery ([2]; surface water) | absolute recovery ([2]; wastewater effluent) | absolute recovery ([2]; wastewater influent) | LC retention time [3] | Structure (SMILES) |
| --- | --- | --- | --- | --- | --- | --- | --- |
| 112% | 107% | 97.9% | 97.8% | 89.8% | 90.1% | 14.5 min | Cc1nnc(-c2ccccc2)c(=O)[n-]1 [Metamitron-Desamino] |
| 89.6% |  | 102% | 86.5% | 83.1% | 91.2% | 18.1 min | CCc1cccc(C)c1N1C(=O)COCC1C (stereo not given) [Metolachlor-Morpholinon] |
| 108% | 102% | 94.2% | 94.6% | 95.3% | 94.3% | 19.7 min | CC(C)OC(=O)NC(C(=O)NC(C)c1nc2ccc(F)cc2s1)C(C)C (stereo not given) [Benthiavalicarb-isopropyl] |
| 105% | 91% | 40.5% | 50.1% | 44.7% | 66.6% | 14.1 min | COc1ccc(C(C[NH3+])C2(O)CCCCC2)cc1 (stereo not given) [N-N-Didesvenlafaxin] |
| 84.1% | 75.5% | 37.8% | 55.7% | 24.6% | 37.4% | 9.66 min | Cc1c(N)c(=O)n(-c2ccccc2)n1C [4-Aminopyrin (=4-Aminoantipyrin, 4-AA)] |
| 103% | 98.5% | 94.9% | 92.4% | 88.6% | 92.9% | 14.5 min | CCC1(c2ccccc2)C(=O)NCNC1=O [Primidon] |
| 113% |  | 50.1% | 69.3% | 78.3% | 83.3% | 16.9 min | CCC1OC(=O)C(C)C(OC2CC(C)(OC)C(O)C(C)O2)C(C)C(OC2OC(C)CC([NH+](C)C)C2O)C(C)(O)CC(C)C(=O)C(C)C(O)C1(C)O (stereo not given) [Erythromycin] |
| 93.7% | 91.9% | 80.9% | 79.1% | 87.9% | 92% | 19.3 min | CC(=O)SC1CC2=CC(=O)CCC2(C)C2CCC3(C)C(CCC34CCC(=O)O4)C12 (stereo not given) [Spironolacton] |
| 98.5% |  | 84.5% |  | 118% |  | 21 min | CC(C)Cc1ccc(C(C)C(=O)[O-])cc1 (stereo not given) [Ibuprofen] |
| 103% | 99.8% | 86.6% | 80.5% | 82.3% | 93.5% | 20.8 min | CCc1cccc2c3c([nH]c12)C(CC)(CC(=O)[O-])OCC3 (stereo not given) [Etodolac] |
| 94.9% | 99.4% | 97.2% | 91.8% | 93.9% | 96.2% | 19 min | CCC(C)OC(=O)N1CCCCC1CCO (stereo not given) [Picaridin (=Icaridin)] |
| 102% | 105% | 90.4% | 94.7% | 90.6% | 98.9% | 12.2 min | CC[N+]([O-])(CC)CC(=O)Nc1c(C)cccc1C [Lidocaine-N-Oxide] |
| 107% | 104% | 93.3% | 98.1% | 104% | 90.7% | 14.3 min | CCc1ccc(CCOc2ccc(CC3SC(=O)[N-]C3=O)cc2)nc1 (stereo not given) [Pioglitazone] |
| 105% | 101% | 98.7% | 96.1% | 94% | 90% | 12.2 min | CC(=O)Nc1ccc(S(=O)(=O)[N-]c2nccs2)cc1 [N4-Acetyl-Sulfathiazol] |
| 104% | 103% | 92% | 93.1% | 90.3% | 93.7% | 13.9 min | CCCC[NH+]1CCCCC1C(=O)Nc1c(C)cccc1C (stereo not given) [Bupivacaine] |
| 105% | 106% | 99.4% | 112% | 102% | 86.1% | 18.6 min | CNC(=O)Nc1ccc(Cl)c(Cl)c1 [Diuron-desmonomethyl (=DCPMU)] |

| Structure (SMILES) | absolute recovery ([1]; wastewater effluent) | absolute recovery ([1]; wastewater influent) | absolute recovery ([2]; nanopure water) | absolute recovery ([2]; surface water) | absolute recovery ([2]; wastewater effluent) | absolute recovery ([2]; wastewater influent) | LC retention time [3] |
| --- | --- | --- | --- | --- | --- | --- | --- |
| CCCCNC(=O)OCC#CI [IPBC (=Iodocarb)] | 60.1% |  | 97.8% | 79.9% | 72.2% | 74.3% | 18.1 min |
| Cc1[nH]c(=O)n(C(C)(C)C)c(=O)c1Cl [Terbacil] | 102% | 105% | 96.1% | 96% | 97.3% | 97.2% | 17.6 min |
| COC(=O)N(OC)c1ccccc1COc1ccn(-c2ccc(Cl)cc2)n1 [Pyraclostrobin] | 87.5% | 90.7% | 101% | 98% | 91.5% | 99.3% | 21.1 min |
| CS(=O)(=O)c1cc(C(F)(F)F)ccc1C(=O)c1cnoc1C1CC1 [Isoxaflutole] | 74.8% |  | 19.2% | 21.8% | 22.8% | 35.1% | 18.3 min |
| CNC(=O)CSP(=S)(OC)OC [Dimethoat] | 102% | 103% | 93.4% | 90.7% | 93% | 92.3% | 14.4 min |
| O=C([O-])C(c1ccccc1)C1CCCC[NH2+]1 (stereo not given) [Ritalinic-acid] | 110% | 104% | 104% | 77.4% | 88.9% | 79.8% | 12.3 min |
| C[NH2+]C(C)Cc1ccccc1 (stereo not given) [Methamphetamin] | 100% | 91.3% | 92.5% | 86.6% | 89.3% | 92.5% | 10.6 min |
| O=C1C(Cl)C(CCl)CN1c1cccc(C(F)(F)F)c1 (stereo not given) [Flurochloridon] | 92% | 60.5% | 98.1% | 104% | 106% | 98% | 19.9 min |
| COc1nn(CSP(=S)(OC)OC)c(=O)s1 [Methidathion] | 108% | 106% | 102% | 97.9% | 96.5% | 88.2% | 18.8 min |
| CC(Oc1ccc(Oc2ncc(C(F)(F)F)cc2Cl)cc1)C(=O)[O-] (stereo not given) [Haloxyfop] | 102% | 95.4% | 84.3% | 73.9% | 84.4% | 95.4% | 21 min |
| CCC(C(N)=O)N1CCCC1=O (stereo not given) [Levetiracetam] | 105% |  | 65.6% | 60.2% | 56.3% |  | 10.9 min |
| COc1cc(OC)n2nc(S(=O)(=O)Nc3c(Cl)ccc(C)c3Cl)nc2n1 [Metosulam] | 98.6% | 106% | 98.1% | 96.2% | 99.7% | 92.6% | 17 min |
| COc1ccc2c(c1)C13CCCCC1C(C2)[NH+](C)CC3 (stereo not given) [Dextromethorphan] | 102% | 107% | 86.8% | 94.5% | 93.4% | 77.6% | 14.5 min |
| COc1nc(NC(C)C)nc(NC(C)C)n1 [Prometon F] | 104% | 106% | 88.1% | 95.5% | 91.6% | 92.7% | 15.8 min |
| CN(C)C(=O)Nc1ccc(-n2nc(C(C)(C)C)oc2=O)c(Cl)c1 [Dimefuron] | 108% | 103% | 103% | 98.3% | 100% | 92% | 18.9 min |
| N#Cc1cc(I)c([O-])c(I)c1 [Ioxynil] | 106% | 111% | 103% | 102% | 99.4% | 96.2% | 19.3 min |
| CCOC(=O)OC1=C(c2cc(C)ccc2C)C(=O)NC12CCC(OC)CC2 (stereo not given) [Spirotetramat] | 61.7% | 54.9% | 12% | 16.9% | 29.9% | 27% | 20 min |
| Cc1cc(C)nc(NC(=O)[N-]S(=O)(=O)c2ccccc2C(=O)OC2COC2)n1 [Oxasulfuron] | 111% | 103% | 107% | 93.3% | 93% | 83.6% | 16.5 min |
| Cc1cc(Cl)ccc1OCC(=O)[O-] [MCPA] | 102% | 103% | 96.1% | 92.9% | 92.7% | 94.2% | 19.3 min |
| Cc1nc(N(C)C)nc(OC(=O)N(C)C)c1C [Pirimicarb] | 102% | 98.7% | 99.4% | 94.3% | 93.5% | 94.1% | 14.1 min |
